Experiments:
[1] = system: T1, human plasma factor Xa (Homo sapiens); assay: Antithrombin-dependent factor Xa inhibition (residual factor Xa activity, Spectrozyme fXa substrate); assay type: biochemical; conditions: 10 μM sulfated compound; 1 μM human plasma antithrombin, 10 nM human plasma factor Xa, pH 6.0, 25° C., 10 min
T1 construct: 10 nM human plasma factor Xa; from tissue; host or cells: human plasma
Method: (§1) Methods. To assay anticoagulant activity, compounds were incubated with 1 μM human plasma antithrombin and 10 nM human plasma factor Xa in 20 mM sodium phosphate buffer, pH 6.0, at 25° C. for 10 min. After incubation, residual factor Xa activity was measured spectrophotometrically using Spectrozyme fXa substrate. From the decrease in residual factor Xa activity as a function of sulfated bis-cyclic agent concentration, the anticoagulant potential of each sample was calculated.
(§2) A key test of in vitro anticoagulant activity is the inhibition of Factor Xa., a critical enzyme involved in blood clotting.
(§3) Each peak was isolated and its factor Xa inhibition potential was determined at concentrations in the range of 1-50 μM.

human plasma factor Xa = biological target: T2, human plasma factor Xa (Homo sapiens, UniProt P01008); assay: as above; assay type: biochemical; conditions: tested at 1-50 μM
T2 construct: 10 nM human plasma factor Xa; from tissue; host or cells: human plasma
T2 sequence (P01008 33-464): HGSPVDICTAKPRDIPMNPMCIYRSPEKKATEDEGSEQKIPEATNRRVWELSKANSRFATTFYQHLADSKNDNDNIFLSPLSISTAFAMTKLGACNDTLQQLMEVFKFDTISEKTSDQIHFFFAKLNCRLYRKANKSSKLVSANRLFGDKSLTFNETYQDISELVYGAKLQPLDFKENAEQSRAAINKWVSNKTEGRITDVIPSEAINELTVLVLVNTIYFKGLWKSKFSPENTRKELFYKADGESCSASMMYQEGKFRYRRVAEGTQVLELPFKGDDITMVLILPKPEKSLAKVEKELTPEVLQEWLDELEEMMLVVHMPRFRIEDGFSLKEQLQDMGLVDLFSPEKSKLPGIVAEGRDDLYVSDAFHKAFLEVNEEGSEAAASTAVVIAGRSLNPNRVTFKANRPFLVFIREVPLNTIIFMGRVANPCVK
Method: as §1, §2, §3

T1 sequence (P01008 33-464): as above

Inhibition (Factor Xa inhibition by sulfated compounds) [1]: 86%
acceleration of the inhibition of human factor Xa by human plasma antithrombin (human plasma factor Xa): greatly accelerates the inhibition
Substance: (3S)-6,7-bis-sulfonato-2-(3,4,5-tris-sulfonato-benzoyl)-1,2,3,4-tetrahydro-isoquinoline-3-carboxylate [Peak P1]
